Consider 67 compounds from patent US7652047B2, “Phenylamino isothiazole carboxamidines as MEK inhibitors” (Ardea Biosciences, Inc., priority 2005, dated 2010).

Where two headings read alike, the source gives them in different places.

This assay has as its target T1, MEK1^CA (human GST-MEK1, constitutively active, Ser218Asp and Ser222Asp) (Homo sapiens, UniProt Q02750, S218D/S222D).
T1 construct: GST; made in house; host or cells: Escherichia coli
Kind of assay: MEK1 enzymatic activity assay (MEK1^CA / ERK2 / MBP, [γ-33P]ATP incorporation). The class given is biochemical. The text has this:
Materials and preparation of reagents: Human GST-MEK1 and the constitutively active allele GST-MEK1^CA (harboring the mutations Ser218Asp and Ser222Asp) were subcloned into the […] expression vector pGEM4Z (Promega, Madison, Wis.) from the wild type human MEK1 cDNA. GST-MEK1^CA was expressed in Escherichia coli and partially purified using Glutathione Sepharose 4B affinity resin (Amersham Pharmacia Biotech, Piscataway, N.J.). The ERK2 allele was subcloned from MAPK2/Erk2 cDNA (wild type) in pUSEamp (Upstate Biotechnology, Inc., Waltham, Mass.) into the vector pET21a (Novagen, Madison, Wis.) resulting in an N-terminal histidine-tagged mouse ERK2 allele. […] Myelin basic protein (MBP) was purchased from Gibco BRL (Rockville, Md.). EasyTides adenosine 5′-triphosphate (ATP) ([γ-^33P]) (NEN Perkin Elmer, Wellesley, Mass.) was the source of radiolabel for all kinase reactions. Activated Raf-1 (truncated) and activated MAPKinase 2/ERK2 were purchased from Upstate, Inc. (Lake Placid, N.Y.). 4-20% Criterion Precast gels were purchased from Bio-Rad (Hercules, Calif.).
A typical 25-microliter assay contained 0.002 nanomoles MEK1^CA, 0.02 nanomoles ERK2, 0.25 nanomoles MBP, 0.25 nanomoles unlabeled ATP, and 0.1 μCi [γ^33P] ATP. The screening assay essentially comprised four additions. Five μl of diluted compound were dispensed to 96-well assay plates. Ten μl of 2.5× enzyme cocktail (MEK1^CA and ERK2 only) were then added to each well followed by a pre-incubation for 30 minutes at ambient temperature. […] Finally, 100 μl of 10% trichloroacetic acid (TCA) were added and incubated for 30 minutes at room temperature to halt the reaction and precipitate radiolabeled protein products. Reaction products were harvested on glass fiber 96 well filter plates prewetted with water and 1% pyrophosphate. The filter plate was then washed 5 times with water. Water was displaced by absolute ethanol and the plate was allowed to air dry for 30 minutes at room temperature. A back seal was applied manually and 40 μl of scintillation cocktail were dispensed to each well. A top seal was applied and the plate was counted in the TopCount for two seconds per well.

The mark [1] stands for this setting: Table 1, compounds of formula I, read-out: Avg IC50.
Setting [2] is: Table 2, Ar1-A contains an amido or indolo group, read-out: IC 50.
Where [3] appears, read: Table 4, R' is (CH2)1 or 2-G, read-out: IC50.

T1 sequence (Q02750 whole entry S218D/S222D): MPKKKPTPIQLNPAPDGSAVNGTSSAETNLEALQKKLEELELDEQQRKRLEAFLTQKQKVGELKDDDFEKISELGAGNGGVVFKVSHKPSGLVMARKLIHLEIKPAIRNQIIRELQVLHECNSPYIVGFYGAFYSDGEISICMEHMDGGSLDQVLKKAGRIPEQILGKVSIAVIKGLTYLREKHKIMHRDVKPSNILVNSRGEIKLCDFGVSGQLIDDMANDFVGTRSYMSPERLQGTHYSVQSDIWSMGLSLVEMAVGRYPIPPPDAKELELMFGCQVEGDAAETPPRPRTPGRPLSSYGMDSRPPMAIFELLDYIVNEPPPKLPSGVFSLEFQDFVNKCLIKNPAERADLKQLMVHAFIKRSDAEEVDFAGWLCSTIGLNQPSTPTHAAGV

In the case of `N=C(NCCO)c1c(O)nsc1Nc1ccc(C2CCCCC2)cc1` [compound 172], the IC50 under setting [1] was more than 500 nM.
Turning to `N=C(NCC1CCCCC1)c1c(O)nsc1Nc1ccc(Cl)nc1` [compound 126], the IC50 under setting [1] was more than 500 nM.
Same read-out and setting: for `N=C(NCC1CCCCC1)c1c(O)nsc1Nc1ccc(Sc2ccccc2)cc1` [compound 100] the value was 1 to 100 nM; for `COC(=O)c1ccccc1Nc1snc(O)c1C(N)=NCC1CCCCC1` [compound 99], more than 500 nM.
For the compound `CC(C)NC(=N)c1c(O)nsc1Nc1ccc(Oc2cccc(C(F)(F)F)c2F)cc1` [compound 353], the IC50 under setting [1] lay in the range of 1 to 100 nM.
On to `CC(C)OCCCNC(=N)c1c(O)nsc1Nc1ccc(Oc2ccccc2)cc1` [compound 51], for which the IC50 under setting [1] was 1 to 100 nM.
With `N=C(NCC1CCCCC1)c1c(O)nsc1Nc1ccc(C(=O)Nc2ccccc2)cc1` [E-4], under setting [2], the IC50 was more than 1000 nM.
As to `N=C(NN1CCCCC1)c1c(O)nsc1Nc1ccc(Oc2cc(Cl)ccc2Cl)cc1` [compound 449], the IC50 under setting [1] was 1 to 100 nM.
Turning to `CC(CO)NC(=N)c1c(O)nsc1Nc1ccc(Oc2cc(Cl)ccc2Cl)nc1` (stereo not shown) [compound 434], the IC50 under setting [1] is 1 to 100 nM.
`N=C(N)c1c(O)nsc1Nc1ccc(Oc2ccccc2)cc1` [compound 110]: the IC50 under setting [1] is 100 to 500 nM.
Take `N=C(NCCOc1ccccc1)c1c(O)nsc1NCC1CCCO1` (stereo not shown) [compound 113]: the IC50 under setting [1] is more than 500 nM.
For `CC[C@H](CO)NC(=N)c1c(O)nsc1Nc1ccc(Oc2ccccc2)cc1` [compound 177], the IC50 under setting [1] fell in the range of 100 to 500 nM.
On the same count and under the same terms, for `CN1CCCC1CCNC(=N)c1c(O)nsc1Nc1ccc(Oc2ccccc2)cc1` (stereo not shown) [compound 148] the value was more than 500 nM.
For the compound `Cc1ccc(Oc2ccc(Nc3snc(O)c3C(=N)NCC3CCCCC3)cc2)cc1` [drawing 823], the IC50 under setting [3] lay in the range of 1 to 100 nM.
On to `CN(C)CCNC(=N)c1c(O)nsc1Nc1ccc(Oc2cc(F)cc(F)c2)cc1` [compound 418], for which the IC50 under setting [1] lay in the range of 100 to 500 nM.
As to `CC(CO)NC(=N)c1c(O)nsc1Nc1ccc(Oc2ccc(F)cc2Cl)cc1C(F)(F)F` (stereo not shown) [compound 408], the IC50 under setting [1] was in the range of 1 to 100 nM.
For the compound `CC(C)NC(=N)c1c(O)nsc1Nc1ccc(Oc2ccc(S(C)(=O)=O)cc2)cc1` [compound 486], under setting [1], the IC50 is more than 500 nM.
For `CCCCC(CO)NC(=N)c1c(O)nsc1Nc1ccc(Oc2ccccc2)cc1` (stereo not shown) [compound 157], under setting [1], the IC50 is 100 to 500 nM.
Turning to `CC(CO)NC(=N)c1c(O)nsc1Nc1ccc(Oc2ccc(S(C)(=O)=O)cc2)cc1` (stereo not shown) [compound 491], the IC50 under setting [1] is more than 500 nM.
For the compound `N=C(c1c(O)nsc1Nc1ccc(Oc2cc(F)cc(F)c2)cc1)N1CCCCC1` [compound 417], the IC50 under setting [1] was more than 500 nM.
As for `N=C(NCC1CCCCC1)c1c(O)nsc1NC1CCc2ccccc21` (stereo not shown) [compound 116], the IC50 under setting [1] was more than 500 nM.
As to `CNC(=N)c1c(O)nsc1Nc1ccc(C)cc1` [Cpd 1], the IC50 under setting [1] was in the range of 100 to 500 nM.
Regarding `CC(C)NC(=N)c1c(O)nsc1Nc1ccc(C(=O)Nc2ccccc2)cc1` [E-7], the IC50 under setting [2] is more than 1000 nM.
Take `N=C(NCC(O)CO)c1c(O)nsc1Nc1ccc(I)cc1` (stereo not shown) [compound 216]: the IC50 under setting [1] is more than 500 nM.
On to `Cc1cccc(Oc2ccc(Nc3snc(O)c3C(=N)NC(C)CO)cc2)c1` (stereo not shown) [compound 289], for which the IC50 under setting [1] is 1 to 100 nM.
With `CC(C)NC(=N)c1c(O)nsc1Nc1ccc(Oc2ccc(C(F)(F)F)cc2)c(Cl)c1` [compound 388], the IC50 under setting [1] fell in the range of 100 to 500 nM.
Take `C[C@H](NC(=N)c1c(O)nsc1Nc1ccc(Oc2ccccc2)cc1)c1ccccc1` [compound 34]: the IC50 under setting [1] lay in the range of 100 to 500 nM.
As for `CC(C)NC(=N)c1c(O)nsc1Nc1ccc(Oc2ccc(Br)c3ccccc23)cc1` [compound 339], the IC50 under setting [1] was 1 to 100 nM.
For the compound `N=C(NC1CCCCC1)c1c(O)nsc1Nc1ccc(Oc2ccccc2)cc1` [Cpd 11], the IC50 under setting [1] fell in the range of 1 to 100 nM.
`N=C(NCC(O)CO)c1c(O)nsc1Nc1ccc(CO)cc1` (stereo not shown) [compound 64]: the IC50 under setting [1] is more than 500 nM.
In the case of `Cc1cc(Oc2ccc(F)c(F)c2)ccc1Nc1snc(O)c1C(=N)NC(C)C` [compound 459], the IC50 under setting [1] was in the range of 1 to 100 nM.
Consider `Cc1ccc2cc(Nc3snc(O)c3C(=N)NCC3CCCCC3)ccc2n1` [compound 106], for which the IC50 under setting [1] is more than 500 nM.
On to `Cc1ccc(Cl)cc1Oc1ccc(Nc2snc(O)c2C(=N)NC(C)C)cc1` [compound 311], for which the IC50 under setting [1] lay within 100 to 500 nM.
The same measure, in the same setting: for `Cc1cc(Oc2ccc(F)cc2Cl)ccc1Nc1snc(O)c1C(=N)NC(C)C` [compound 401] the value was 1 to 100 nM; for `CCOC(=O)c1cccc(Nc2snc(O)c2C(=N)NC(C)CO)c1` (stereo not shown) [compound 489], more than 500 nM.
With `COc1cc2c(cc1Nc1snc(O)c1C(=N)NCC1CCCCC1)oc1ccccc12` [compound 131], under setting [1], the IC50 was more than 500 nM.
Same read-out and setting: the figure for `N=C(NCCN1CCNCC1)c1c(O)nsc1Nc1ccc(Oc2cc(F)cc(F)c2)cc1` [compound 412] is 1 to 100 nM; for `CC(CO)NC(=N)c1c(O)nsc1Nc1ccc(Oc2ccc(C(F)(F)F)cc2)cc1` (stereo not shown) [compound 377] it is more than 500 nM.
On the same count and under the same terms, for `N=C(NCC1CCCCC1)c1c(O)nsc1Nc1cccc(Cl)c1Cl` [compound 96] the value was more than 500 nM; for `N=C(NCCO)c1c(O)nsc1Nc1ccc(Oc2cncnc2)cc1` [compound 171], more than 500 nM; for `N=C(NCC1CCCCC1)c1c(O)nsc1Nc1ccc(/C=C/c2ccccc2)cc1` [compound 133], more than 500 nM.
Still for that read-out and setting: for `CC(CO)NC(=N)c1c(O)nsc1Nc1ccc(OC2CCCCC2)cc1` (stereo not shown) [compound 220] the value was more than 500 nM; for `CC(C)NC(=N)c1c(O)nsc1Nc1ccc(Oc2cccc(C(F)(F)F)c2Cl)c(Cl)c1` [compound 364], 1 to 100 nM.
Regarding `CC(CO)NC(=N)c1c(O)nsc1Nc1ccc(Oc2cccc(C(F)(F)F)c2)nc1` (stereo not shown) [compound 433], under setting [1], the IC50 lay in the range of 1 to 100 nM.
Still for that read-out and setting: for `CC(C)NC(=N)c1c(O)nsc1Nc1ccc(Oc2ccc(F)cc2Cl)cc1` [compound 296] the value was 100 to 500 nM.
On to `CC(O)CNC(=N)c1c(O)nsc1Nc1ccc(-c2nc3ccccc3[nH]2)cc1` (stereo not shown) [compound 510], for which the IC50 under setting [1] is more than 500 nM.
On to `N=C(N)c1c(O)nsc1Nc1ccc(C(=O)N2CCc3cc(Br)ccc32)cc1` [E-20], for which, under setting [2], the IC50 lay in the range of 1 to 200 nM.
Regarding `N=C(NCC1CCCCC1)c1c(O)nsc1Nc1ccc(Oc2cc(Cl)ccc2Cl)cc1` [compound 441], the IC50 under setting [1] lay in the range of 1 to 100 nM.
On to `N=C(N[C@H](CO)CC1CCCCC1)c1c(O)nsc1Nc1ccc(Oc2ccccc2)cc1` [compound 168], for which, under setting [1], the IC50 was more than 500 nM.
Consider `Cc1cc(Oc2ccc(F)cc2Cl)ccc1Nc1snc(O)c1C(=N)N(O)Cc1ccccc1` [compound 463], for which, under setting [1], the IC50 fell in the range of 1 to 100 nM.
`CN1CCN(C(=O)c2ccc(Nc3snc(O)c3C(=N)NCCO)cc2)CC1` [E-18]: the IC50 under setting [2] is more than 1000 nM.
`COC(=O)c1cccc(Nc2snc(O)c2C(=N)NCC(C)O)c1C` (stereo not shown) [compound 495]: the IC50 under setting [1] was more than 500 nM.
For the compound `Cc1cc(C#N)cc(C)c1Oc1ccc(Nc2snc(O)c2C(=N)NC(C)C)cc1Cl` [compound 285], the IC50 under setting [1] is more than 500 nM.
Turning to `CCNC(=N)c1c(O)nsc1Nc1ccc(Oc2ccccc2)cc1` [compound 199], the IC50 under setting [1] was in the range of 1 to 100 nM.
Turning to `CN(O)C(=N)c1c(O)nsc1Nc1ccc(Oc2ccccc2)cc1` [compound 139], the IC50 under setting [1] is 100 to 500 nM.
As for `CC(C)NC(=N)c1c(O)nsc1Nc1ccc(OC2CCNCC2)cc1` [compound 253], the IC50 under setting [1] was more than 500 nM.
As to `COCCNC(=N)c1c(O)nsc1Nc1ccc(Oc2cc(F)cc(F)c2)cc1C` [compound 470], the IC50 under setting [1] is 1 to 100 nM.
As for `Cc1ccc(Oc2ccc(Nc3snc(O)c3C(=N)NCC3CCCCC3)cn2)cn1` [drawing 825], the IC50 under setting [3] is more than 500 nM.
Take `CNC(=N)c1c(O)nsc1Nc1ccc(Oc2ccccc2)c(F)c1` [compound 309]: the IC50 under setting [1] is more than 500 nM.
As for `CCC(C)CNC(=N)c1c(O)nsc1Nc1ccc(Oc2ccccc2)cc1` (stereo not shown) [compound 52], the IC50 under setting [1] was 1 to 100 nM.
As for `Cc1cc(Nc2snc(O)c2C(=N)NC(C)C)ccc1Oc1ccccc1` [compound 317], under setting [1], the IC50 lay within 100 to 500 nM.
Same read-out and setting: the figure for `N=C(NCC(O)O)c1c(O)nsc1Nc1ccc(Oc2ccccc2Cl)cc1` [compound 210] is 100 to 500 nM; for `N=C(c1c(O)nsc1Nc1ccc(Oc2cc(F)cc(F)c2)cc1)N1CCOCC1` [compound 420] it is more than 500 nM.
On the same count and under the same terms, for `N=C(NCC1CCCCC1)c1c(O)nsc1Nc1ccc([N+](=O)[O-])cc1O` [compound 89] the value was more than 500 nM.
Take `CC(C)NC(=N)c1c(O)nsc1Nc1ccc(Oc2ccccc2Cl)c(F)c1` [compound 277]: the IC50 under setting [1] lay within 1 to 100 nM.
Take `CC(CO)NC(=N)c1c(O)nsc1Nc1ccc(Oc2cccc(F)c2)cc1` (stereo not shown) [compound 273]: the IC50 under setting [1] was 1 to 100 nM.
`CC(C)NC(=N)c1c(O)nsc1Nc1ccc(C(=O)N2CCc3ccccc32)cc1` [E-10]: under setting [2], the IC50 lay in the range of 1 to 200 nM.
